According to patent US20160074301A1, “ANTI-AGING SKIN CARE COMPOSITIONS AND REGIMENS” (The Procter & Gamble Company, priority 2014, published 2016):

Experiments:
[1] = tested on: "Clear and Detox" module genes; experiment: Eigengene of "Clear and Detox" co-expression module (FIG. 8); details: cultured human keratinocytes
skin barrier formation = experiment: Eigengene analysis, skin barrier formation, treated cultured human keratinocytes; type: cell-based
[2] = tested on: "Repair and Rebuild" associated genes; experiment: Eigengene of "Repair and Rebuild" co-expression module (FIG. 9); details: cultured human keratinocytes

Row | Substance | effect on "Clear and Detox" eigengene (FIG. 8) [1] | successful aging effect in skin barrier formation (skin barrier formation) | effect on "Repair and Rebuild" eigengene (FIG. 9) [2]
1 | palmitoyl-lysine-threonine [Pal-KT] | significantly up-regulates | Effects relating to successful aging were also identified | 
2 | palmitoyl-lysine-threonine-threonine-lysine-serine [Pal-KTTKS] |  |  | significantly up-regulate
